Among the test systems are SN12C renal; A498 renal; CAKI-1 renal; SW-620 colon; HL-60(TB) leukemia; OVCAR-5 ovarian; SF-539 CNS; TK-10 renal; A549 NSCLC; BT-549 breast.
Common to all, as to experiment: NCI anticancer screen, dose series, 48 h

We go through eight compounds from PubChem BioAssay (NCI).

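Where inhibition never reached the appropriate level, the endpoint shown equals the highest concentration tested. Otherwise, values were interpolated linearly from a five-concentration, 48-hour dose response in 96-well plates. Abbreviation: GI50, concentration required for 50% inhibition of growth. TGI denotes the concentration required for complete inhibition of growth.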

As to `O=c1ccn(C2CC(O)C(CO)O2)c(=O)[nH]1` (configuration not stated), the GI50 in the test on SN12C renal, in the test with A498 renal, in the test with CAKI-1 renal, in the test on SW-620 colon, in the test on HL-60(TB) leukemia and in the test on OVCAR-5 ovarian was above 5000 µM in each case. The GI50 in the test on SF-539 CNS, with TK-10 renal, in the test on A549 NSCLC and in the test on BT-549 breast was above 5000 µM throughout. The TGI with SN12C renal, in the test on A498 renal, in the test on CAKI-1 renal, with SW-620 colon, with HL-60(TB) leukemia and in the test on OVCAR-5 ovarian was above 5000 µM in each case. Moreover, the TGI in the test on SF-539 CNS, with TK-10 renal, in the test on A549 NSCLC and in the test on BT-549 breast was above 5000 µM each time.
For `O=C(Nc1cccc(-n2cc(-c3ccncc3)c(-c3cc(O)cc(Cl)c3)n2)c1)Nc1ccc(Cl)c(C(F)(F)F)c1`, the GI50 is 3.45 µM in the test on SN12C renal; 3.9 µM in the test with A498 renal; 2.68 µM with CAKI-1 renal; 3.29 µM with SW-620 colon; 2.86 µM with HL-60(TB) leukemia; 3.79 µM in the test with OVCAR-5 ovarian. The GI50 with SF-539 CNS is 1.97 µM; in the test with A549 NSCLC, 2.33 µM; in the test on BT-549 breast it was 2.25 µM. The TGI with SN12C renal was 17.2 µM; in the test with A498 renal, 15.5 µM; in the test on CAKI-1 renal it was 7.87 µM; in the test with SW-620 colon, 10.7 µM; in the test on HL-60(TB) leukemia, 6.62 µM; in the test with OVCAR-5 ovarian, 13.1 µM. Besides, the TGI in the test on SF-539 CNS was found to be 4.49 µM; in the test with A549 NSCLC, 9.2 µM; with BT-549 breast, 6.15 µM.
`Cc1ccc(-c2nc(C#N)c(S(=O)(=O)n3nc(C)cc3N)o2)cc1`: the GI50 in the test with SN12C renal was 3.65 µM; in the test on A498 renal, 16.3 µM; with CAKI-1 renal, 4.3 µM; in the test on HL-60(TB) leukemia it was 2 µM; in the test with OVCAR-5 ovarian, 12.4 µM; in the test on SF-539 CNS it was 5.07 µM. Besides, the results for the GI50 in the test with TK-10 renal, in the test with A549 NSCLC and in the test with BT-549 breast were 1.97 µM, 19.6 µM and 3.85 µM, respectively. For the same compound, the TGI worked out at 13.9 µM in the test on SN12C renal; 32.9 µM in the test on A498 renal; 14.2 µM with CAKI-1 renal; 5.42 µM with HL-60(TB) leukemia; 27.5 µM in the test on OVCAR-5 ovarian; 17.4 µM in the test with SF-539 CNS. The TGI is 3.6 µM with TK-10 renal, 39.8 µM with A549 NSCLC and 14.8 µM with BT-549 breast.
Turning to `O=C(N/C(=C/c1ccc(Cl)cc1Cl)c1nc2ccccc2s1)c1ccccc1`, the TGI with SN12C renal is 23 µM; in the test on CAKI-1 renal, 30 µM; in the test on SW-620 colon, 24.6 µM; with HL-60(TB) leukemia it was above 100 µM; in the test with OVCAR-5 ovarian, 32 µM; with SF-539 CNS it was 31.1 µM. For the same compound, the TGI with TK-10 renal was 42.8 µM; with A549 NSCLC it was 53.8 µM; with BT-549 breast it was 64.8 µM.
`NC(=O)c1ccccc1Nc1ccc2nnc(-c3ccncc3)n2n1`: the GI50 in the test on SN12C renal was 3.69 µM; in the test on A498 renal, 14.2 µM; in the test with CAKI-1 renal, 2.45 µM; in the test on SW-620 colon it was 5.6 µM; in the test with HL-60(TB) leukemia, 14.3 µM; with OVCAR-5 ovarian, 15.4 µM. In addition, the figures for the GI50 in the test on SF-539 CNS, in the test with TK-10 renal and in the test on BT-549 breast were 15.3 µM, 6.81 µM and 1.9 µM, respectively. The TGI in the test on SN12C renal was 18.1 µM; with A498 renal it was 27.2 µM; with CAKI-1 renal, 6.42 µM; with SW-620 colon, 19.1 µM; in the test on HL-60(TB) leukemia, 39.6 µM; in the test on OVCAR-5 ovarian, 29.8 µM. Further, the TGI came to 28.9 µM in the test with SF-539 CNS, 20.7 µM in the test on TK-10 renal and 3.83 µM with BT-549 breast.
In the case of `COc1ccc(-c2nc(/C=N/Nc3cc(C)nc4ccc(Cl)cc34)c(C)o2)cc1`, the GI50 with SN12C renal was 1.8 µM; with A498 renal, 3.13 µM; in the test with CAKI-1 renal, 1.63 µM; in the test on SW-620 colon, 1.6 µM; in the test with OVCAR-5 ovarian, 1.68 µM; in the test with SF-539 CNS it was 1.97 µM. In addition, the results for the GI50 in the test with TK-10 renal, in the test on A549 NSCLC and in the test on BT-549 breast were 1.83 µM, 1.73 µM and 1.95 µM, respectively. Also, the TGI in the test on SN12C renal came to 3.42 µM; with A498 renal, 15.2 µM; in the test with CAKI-1 renal, 2.98 µM; with SW-620 colon it was 3.2 µM; in the test with OVCAR-5 ovarian, 3.07 µM; with SF-539 CNS, 3.45 µM. The TGI in the test with TK-10 renal stood at 3.3 µM; in the test on A549 NSCLC, 3.32 µM; with BT-549 breast, 4.28 µM.
Regarding `CCCCC[C@H]1C/C=C2/C(=O)C=C[C@@H]2C/C=C\CCCC(=O)O[C@@H](CCCCC)C/C=C2/C(=O)C=C[C@@H]2C/C=C\CCCC(=O)O1`, the GI50 with SN12C renal is 0.105 µM; in the test on A498 renal, 0.449 µM; with SW-620 colon it was 0.135 µM; in the test with HL-60(TB) leukemia, 0.136 µM; in the test on OVCAR-5 ovarian, 0.566 µM; with SF-539 CNS, 0.423 µM. The values for the GI50 in the test on TK-10 renal, in the test with A549 NSCLC and in the test with BT-549 breast were 0.582 µM, 0.528 µM and 0.32 µM, respectively. The TGI in the test on SN12C renal turned out to be 0.796 µM; in the test on A498 renal it was 0.863 µM; with SW-620 colon it was 0.734 µM; in the test with HL-60(TB) leukemia, 0.704 µM; with OVCAR-5 ovarian, 1.31 µM; in the test with SF-539 CNS, 1.09 µM. Also, the TGI with TK-10 renal came to 1.31 µM; in the test on A549 NSCLC, 1.35 µM; with BT-549 breast, 1.02 µM.
For `NC(=O)c1ccc(I)c(N=O)c1`, the GI50 with SN12C renal was 55.8 µM; in the test with CAKI-1 renal it was 20 µM; in the test with SW-620 colon, 18.3 µM; in the test with HL-60(TB) leukemia it was 29 µM; with OVCAR-5 ovarian, 71.9 µM; in the test on SF-539 CNS, 32.3 µM. Also, the GI50 was 34.9 µM with TK-10 renal, 42.1 µM with A549 NSCLC and 40.3 µM in the test on BT-549 breast. Also, the TGI with SN12C renal is above 100 µM; with CAKI-1 renal, 45.4 µM; in the test with SW-620 colon, 33.3 µM; with HL-60(TB) leukemia, 85.5 µM; in the test on OVCAR-5 ovarian, above 100 µM; in the test with SF-539 CNS it was above 100 µM. The TGI in the test with TK-10 renal, in the test on A549 NSCLC and in the test on BT-549 breast was above 100 µM in each case.
